Data set [1] relates to parental HAP1 leukemia cells. The data set can be described thus: Growth inhibition of parental HAP1 leukemia cells. Conditions: Homo sapiens, HAP1; parental cells; read-out: GI50 (concentration for 50% growth inhibition). The format is cell-based. An excerpt: A) DCK and UCK2 knockout (KO) were confirmed by Western blot. HAP1 leukemia cells, KO by CRISPR-Cas9. B) DCK-KO lowers dCTP and UCK2-KO lowers dTTP. Analysis of independent nucleotide extractions. Means±SD; p-values unpaired t-test, 2-sided. C) Sensitivity of Wildtype, DCK-KO and UCK2-KO HAP1 leukemia cells to Dec vs 5Aza. Means±SD of 3 independent biological replicates.
(§1) Study approvals. Bone marrow samples for research were obtained from patients with AML (Acute myeloid leukemia) with written informed consent on a study protocol approved by the Cleveland Clinic Institutional Review Board (Cleveland, Ohio). Murine experiments were approved by the Cleveland Clinic Institutional Animal Care and Use Committee (Cleveland, Ohio). Sources of cell lines and animals. […] DNMT1 Immuno-detection and quantitation: Immunohistochemistry (IHC) was performed on decalcified and formalin-fixed paraffin embedded bone marrow biopsy sections (4 μm) and on positive and negative controls (parental and DNMT1-KO HCT116 cells). […] Nuclei positive for DNMT1 were identified and quantified in high resolution, large field-of-view images per ImageIQ algorithms (Image IQ Inc., Cleveland, OH) after segmentation of images and subtraction of bone as has been previously described^4.

In another data set the test system is DNMT1. Briefly: Serial patient bone marrow biopsies, DNMT1 immunohistochemistry. The class given is in vivo, human.
Source text: Serial bone marrow biopsies from the same patient were cut onto the same slide, stained for DNMT1, and the number of DNMT1-positive nuclei was quantified objectively using ImageIQ software in 13 patients and positive/negative controls (tissue blocks of HCT116 wild-type and DNMT1-knockout cells respectively). D=days of therapy. Pre-Rx=pre-treatment; HI=hematologic improvement; CR=complete remission; SD=stable disease; Rel.=relapse. Mean±SD of ×3 image segments (cellular regions) per sample; p-value paired t-test, 2-sided. C) Expression of key pyrimidine metabolism enzymes at relapse/progression on Dec. […] Bone marrow cells aspirated pre-treatment and at relapse/progression on Dec (13 patients, median duration of therapy 175 days, range 97-922) or 5Aza (14 patients, median duration of therapy 433 days, range 61-1155) were analyzed by QRT-PCR. Mean±SD technical replicates×3. Paired t-test, 2-sided. D) Expression by Western blot of DNMT1 and key pyrimidine metabolism enzymes in Dec-resistant AML cells (THP1, K562, OCI-AML3 and MOLM13), and in parental THP1 AML cells treated with vehicle, Dec or 5-azacytidine (5Aza). Western blots.
as §1

Data set [2] has as its system AML cells (MOLM13, OCI-AML3, THP1). The data set can be described thus: AML cell proliferation after a single dose. The format is cell-based. Conditions: decitabine, deoxycytidine 0.5 μM, 5-azacytidine, cytidine 5 μM. On the procedure:
(§2) A) Experiment schema. Vehicle, natural deoxycytidine (dC) 0.5 uM, natural cytidine (C) 5 uM, Dec 0.5 uM, or 5Aza 5 uM were added once to AML cells at 0 hours. B) Cell counts. By automated counter. Means±SD for 3 independent biological replicates for each cell line. C) Dec and 5Aza have opposite effects on dCTP levels. Measured by LCMS/MS 24 hrs after addition of Dec or 5Aza. Analyses of 2 or more independent nucleotide extractions from 3 different AML cells lines. Means±SD; p-values paired t-test, 1-sided. D) Gene expression 72 hours after Dec or 5Aza. Gene expression by QRT-PCR, relative to average expression in vehicle-treated controls. Means±SD for 3 independent biological replicates in each of 3 AML cell lines; p-values unpaired t-test vs vehicle, 2-sided. E) Western blot 72 hours after Dec or 5Aza. AML cells THP1, OCI-AML3 and K562. Western blots were reproduced in three independent biological replicates.

The test system of data set [3] is dCTP, dTTP and pyrimidine metabolism enzymes. Briefly: AML cells: nucleotide levels (LCMS/MS) and enzyme expression (QRT-PCR, Western blot). The class given is cell-based. On the procedure:
as §2
C) Off-target pathways of Dec and 5Aza. D) Effects of Dec and 5Aza on RRM2A, RRM2B and CTPS1 protein levels. Western blots 72 hours after addition of a single dose of Dec 0.25 μM or 5Aza 2.5 uM. Western blots were reproduced in biological replicates.
(In general: A western blot detects proteins with antibodies after separation by electrophoresis.)

The conditions of data set [4]: in vivo; cited from earlier work.
The next data set concerns DCK. To be noted: leukemia cells, within 48 hours; cited from earlier work.

Consider `Nc1ncn([C@@H]2O[C@H](CO)[C@@H](O)[C@H]2O)c(=O)n1` [5-azacytidine], for which the GI50 in data set [1] amounted to 4 µM. The “DNMT1 protein at time-of-relapse on-therapy” value in the data set on DNMT1 is reported as “rebounded to levels comparable to pre-treatment levels”. For the same compound, the “decrease of DNMT1 protein at time-of-response compared to pre-treatment” value with DNMT1 (13 patients) is about 50%. Also, the AML cell proliferation result in data set [2] is listed as “significantly decreased AML cell proliferation”. Moreover, in data set [3], the DNMT1 protein entry is recorded as “depleted DNMT1”, the RRM1 protein result was “decreased levels of the ribonucleotide reductase sub-unit RRM1” and the TYMS protein entry was “downregulated”. For the same compound, in data set [3] (24 hour time-point), the dCTP amount result is reported as “significantly decreased” and the dTTP amount entry is “decreased by both pro-drugs, but not to statistical significance”. Besides, in data set [3] (72 hour time-point), the “CDA mRNA and protein expression” value is “significantly increased”; the “DCK mRNA and protein expression” value is given as “significantly increased”; the “phosphorylation of CAD at serine 1856” value was “decrease phosphorylation of CAD at serine 1856”; the “total CAD or CTPS1 levels” value is on record as “Neither pro-drug changed total CAD”. Also, in data set [4], the “in vivo plasma half-life” value is about 15 min. The DCK upregulation with DCK is about 30%.

The values are drawn from patent US20260076988A1 (The Cleveland Clinic Foundation, priority 2019, published 2026).
